# Data reported in patent US9028842B2, “Compositions and methods for treatment, research and therapeutic applications for malaria” (priority 2007, dated 2015).
# Where no end group is shown, it is not given here.
# Experiments:
# [1] = tested on: P. falciparum infected erythrocytes expressing PfHRPII-GFP; assay: Endocytic lipid import with the lipid marker FM4-64; format: cell-based, Plasmodium falciparum; conditions: 5 μM PPMP, short-term (30 min)
# Method: FM4-64 (N-(3-triethylammoniumpropyl)-4-(6-(4-(diethylamino)phenyl)hexatrienyl)pyridinium dibromide) is a fluorescent lipid marker that has been used to study endocytosis in eukaryotic cells^18. To visualize active uptake of FM4-64 from the erythrocyte plasma membrane during intraerythrocytic growth, trophozoite stage parasites expressing either PfHRPII-GFP or PFD0495c-GFP were incubated in the absence or presence of 5 μM dl-threo-PPMP for 30 min at 37° C. Infected erythrocytes were washed three times in PBS then stained with 16 μM FM4-64 for 30 min at 37° C. Nuclei were stained with 10 μg/mL Hoechst 33342, and cells were washed with PBS three times. Cells were imaged live with DeltaVision Deconvolution microscopy^10.
# [2] = tested on: P. falciparum 3D7 and PFD0495c-GFP clones; assay: Reversibility of treatment with PPMP after 24 hr; format: cell-based, Plasmodium falciparum
# Method: Synchronized ring stage parasites at 5-10% pst were incubated with 5 uM PPMP for 24 hr (day 1). Infected erythrocytes were washed with RPMI 1640 three times to remove PPMP then put back into culture. Blood smears were made at days 0, 1, 2, and 3 and stained with Giemsa. Parasites were fed fresh media every 24 hr. Rings, trophozoites and schizonts were enumerated by a counter who was blinded to sample identity. Both PFD0495c-GFP clones responded to PPMP in the same manner as 3D7. […] When PPMP was washed out, all parasites continued the cell cycle and at day 2 matured to schizonts, which formed new rings by day 3.
# [3] = tested on: P. falciparum ring stage parasites; assay: Quantitative RT-PCR of PFD0495c transcript after PPMP treatment; format: cell-based, Plasmodium falciparum; conditions: 5 μM PPMP, 12 and 24 hr of treatment
# Method: Quantitative PCR was used to confirm the array results. Parasites were synchronized by successive rounds of percoll and sorbitol. Ring stage parasites were treated with either 5 μM dl-threo-PPMP or vehicle (ethanol=0.01%) for 3, 6, 12, and 24 h. RNA was isolated using Trizol (Invitrogen) and treated with DNAse (Promega) according the manufacturer's recommendations. Integrity of the RNA was confirmed with the 2100 Bioanalyzer (Agilent). First strand cDNA synthesis was initiated by priming 5 ug RNA with 40 ug/mL oligo(dT)12-18 at 65° C. for 5 min then incubating reaction with 0.5 mM dNTPs and 200 U SuperScript reverse transcriptase (Invitrogen) for 60 min at 42° C. The reaction was inactivated by heating to 70° C. for 15 min. […]
# Amplification of P. falciparum 18S ribosomal RNA (GI 160642), an endogenous control, was done in parallel (forward 5′-ACAATTGGAGGGCAAGT-′3 (SEQ ID NO:39), reverse 5′-TTGGAGCTGGAATTACC-3′ (SEQ ID NO:40)) to standardize the amount of sample in each well. […] Relative quantification was performed using the comparative method, whereby the amount of PFD0495c was normalized to the endogenous control 18S rRNA. […]
# [4] = tested on: P. falciparum 3D7 and PFD0495c-GFP clones; conditions: after 36 h of treatment, previous studies; cited from earlier work
# [5] = tested on: P. falciparum 3D7 ring stage parasites; assay: Transcriptional response to PPMP treatment by microarrays; format: cell-based, Plasmodium falciparum; conditions: 5 μM dl-threo-PPMP, 24 hr, relative to control trophozoites
# Method: Ring stage parasites were treated with either 5 μM dl-threo-PPMP or vehicle ([ethanol]f=0.01%) for 24 hr and were harvested for RNA isolation. Untreated ring stage parasites were also harvested. The experimental design served to compare PPMP— to either mock-treated or ring stage transcripts. RNA was isolated according to Invitrogen (Carlsbad, Calif.) protocols using Trizol. First strand cDNA synthesis and hybridizations were performed according to previous protocols^24. Microarray slides were scanned using GenePix 4000B Scanner and analyzed with GenePix Pro 4.1. The statistical program R with the add-in package SMA (http://www. followed by stat.berkeley.edu/%7Eterry/zarray/Software/smacode.html) was used to normalize data^25,26. Only high quality features and those with signal two standard deviations above background were analyzed, leaving 4580 elements from a total of 8088 oligos. Features with a log odds ratio above zero were considered.
# [6] = tested on: P. falciparum 3D7 infected ghosts; assay: Indirect immunofluorescence assay of parasite protein export in infected ghosts; format: cell-based, Plasmodium falciparum; conditions: 10 μM in erythrocyte cytoplasm
# Method: Indirect immunofluorescence assay was conducted as described^27. Ghosts that were infected with 3D7 were probed with antibodies to HRPII (Santa Cruz) and MSP1 (MR4) and appropriate secondary antibodies conjugated to FITC or rhodamine. Nuclei were stained with 10 μg/mL Hoechst 33342. Images were captured using DeltaVision Deconvolution microscopy as described^10.
# [7] = tested on: TVN of P. falciparum infected ghosts; assay: Visualization of tubovesicular network by BODIPY-Texas Red C5 ceramide staining; format: cell-based, Plasmodium falciparum; conditions: 10 μM in erythrocyte cytoplasm
# Method: To visualize TVN membranes, erythrocytes or ghosts infected with indicated P. falciparum strain were washed free of serum and stained with 2.5 μM BODIPY-Texas Red C5 ceramide (N-((4-(4,4-difluoro-5-(2-thienyl)-4-bora-3a,4a-diaza-s-indacene-3-yl)phenoxy)acetyl)sphingosine, Invitrogen) for 15 min at 37° C. Nuclei were stained with 10 μg/mL Hoechst 33342. The cells were washed in RPMI 1640 three times and viewed live by DeltaVision Deconvolution microscopy as described^9.
# P. falciparum = assay: GST-fusions loaded into resealed erythrocyte ghosts, then infection by Plasmodium falciparum; format: cell-based
# From the text: Erythrocytes were loaded with GST cargo and resealed according to previous protocols^15. Schizonts were percoll-purified to >95% purity and mixed with loaded ghosts at 2% parasitemia. Numbers of rings, trophozoites and schizonts were enumerated by a counter who was blinded to sample identity. Parasite morphology was monitored for any differences. Images of blood smears were taken by light microscopy with a Zeiss Axioskop upright microscope and Nuance spectral camera/un-mixing system (Cambridge Research and Instrumentation).
# [8] = 50 μM in resealed erythrocyte ghosts
Compound,internalization of FM4-64 via TVN tubules [1],"reversibility of effects on parasite growth upon washing out drug ([2]; 5 μM PPMP 24 h, parent line and transgenic clones)","parasite stage after 24 incubation ([2]; 5 uM PPMP, 3D7 and both PFD0495c-GFP clones)",PFD0495c transcript level compared to vehicle control [3],concentrations inhibiting 50% and 90% parasite growth [4],PFC0435w transcriptional change (down regulated) [5] [fold],PFD0495c transcriptional change (upregulated) [5] [fold],effect on parasite protein export [6],effect on tubular-TVN development [7],effect on invasion (measured as ring formation) (P. falciparum; [8]),effect on trophozoite growth (P. falciparum; [8]),parasitemia on Day 3 (P. falciparum; ghosts loaded with 10 μM)
"CCCCCCCCCCCCCCCC(=O)N[C@H](CN1CCOCC1)[C@H](O)c1ccccc1 (racemic) [PPMP, dl-threo-1-phenyl-2-palmitoyl-3-morpholino-1-propanol]",blocked,completely reversible,remained at the trophozoite stage,significantly up-regulated,low micromolar,~4,~3,–,–,–,–,–
GST-PFD0495cCterm: recombinant form of the C-terminal region of PFD0495c (amino acids 795 to 833) fused to glutathione S-transferase (DLDIDDTLKFQHDQEFLNYFKRYQDFNNQLFDSFRSDDR; also: fused to glutathione S-transferase),–,–,–,–,–,–,–,no deleterious effect,disrupted,no significant effect,inhibitory,6-7%
